Experimental data published in patent US9936700B2, “Substituted quinoxaline derivatives as pest control agent” (BAYER CROPSCIENCE AKTIENGESELLSCHAFT, priority 2013, dated 2018).
Read-outs that look alike come from different tables or passages of the source.

Tests used:
[1] = log P by reversed-phase HPLC (EEC Directive 79/831 Annex V.A8); assay type: physicochemical; conditions: for chromatographic logP: reversed-phase C18 HPLC column
Excerpt: NMR data and log P values: log P (HCOOH)=log P[a] log P (neutral)=log P[b]
^[a] […] Called log P (HCOOH) in the table.
^[b] […] Called log P (neutral) in the table.

Tetranychus urticae = Tetranychus urticae spray test, OP-resistant (TETRUR); assay type: in vivo; conditions: 500 g/ha, bean leaf discs, after 6 days
Method: Tetranychus urticae—spray test, OP-resistant (TETRUR)
• Solvent: 78.0 parts by weight of acetone • 1.5 parts by weight of dimethylformamide • Emulsifier: 0.5 part by weight of alkylaryl polyglycol ether
After 6 days, the efficacy in % is determined. 100% means that all the spider mites have been killed; 0% means that no spider mites have been killed.

Myzus persicae = Myzus persicae spray test (MYZUPE); assay type: in vivo; conditions: Chinese cabbage leaf discs, after 6 days
Method: Myzus persicae—spray test (MYZUPE)
• Solvent: 78 parts by weight of acetone • 1.5 parts by weight of dimethylformamide • Emulsifier: 0.5 part by weight of alkylaryl polyglycol ether
After 6 days, the efficacy in % is determined. 100% means that all the aphids have been killed; 0% means that no aphids have been killed.

Aphis gossypii = Aphis gossypii spray test; assay type: in vivo; conditions: 100 ppm, cotton plants, after 6 days
Method: Aphis gossypii—spray test
• Solvent: 7 parts by weight of dimethylformamide • Emulsifier: alkylaryl polyglycol ether
To produce further test concentrations, the preparation is diluted with emulsifier-containing water. If the addition of ammonium salts or/and penetrants is required, these are each added in a concentration of 1000 ppm to the formulation solution.
After 6 days, the kill in % is determined. 100% means that all the aphids have been killed; 0% means that no aphids have been killed.

[2] = acidic range, pH 2.7, 0.1% aqueous formic acid/acetonitrile
[3] = neutral range, pH 7.8, aqueous ammonium hydrogencarbonate/acetonitrile, read-out: logP [b] = log P (neutral)
[4] = neutral range, pH 7.8, aqueous ammonium hydrogencarbonate/acetonitrile
[5] = acidic range, pH 2.7, 0.1% aqueous formic acid/acetonitrile, read-out: logP [a] = log P (HCOOH)

With FC(F)(F)c1ccc2nc(-c3ccc(Cl)cc3)cnc2c1 [Example I-25] the “logP [a] = log P (HCOOH)” value [1, 2] was 4.99 and the “efficacy (spider mites killed)” value (Tetranychus urticae) was 90%.

With O=c1cnc2cc(C(F)(F)F)ccc2[nH]1 [VIa-01, 6-(trifluoromethyl)quinoxalin-2(1H)-one] the chromatographic logP [1, 3] was 1.71.

In the case of Cn1nccc1-c1cnc2cc(C(F)(F)F)ccc2n1 [Example I-49], the “logP [a] = log P (HCOOH)” value [1, 2] was 3.07 and the “logP [b] = log P (neutral)” value [1, 4] was 3.05.

Work on [O-][n+]1cc(-c2ccc(C(F)(F)F)cc2)nc2cc3c(cc21)OC(F)(F)O3 [Example I-6, 2,2-Difluoro-7-[4-(trifluoromethyl)phenyl][1,3]dioxolo [4,5-g]quinoxaline 5-oxide] yielded a chromatographic logP [1, 5] of 4.12.

For Clc1cc2ncc(-c3ccncc3Cl)nc2cc1Cl [Example I-71], the “logP [a] = log P (HCOOH)” value ([1]; pH 2.7) was 3.78.

In the case of Cc1cnccc1-c1cnc2cc(Cl)ccc2n1 [Example I-17], the “logP [a] = log P (HCOOH)” value ([1]; pH 2.7) was 1.69 and the “logP [b] = log P (neutral)” value ([1]; pH 7.8) was 2.58.

With Cc1cnccc1-c1nc2ccc(C(F)(F)F)cc2nc1C [Example I-66] the “efficacy (aphids killed)” value (Myzus persicae; 500 g/ha) was 90%, the “logP [a] = log P (HCOOH)” value [1, 2] was 2.15 and the “efficacy (kill of aphids)” value (Aphis gossypii) was 95%. The “efficacy (spider mites killed)” value (Tetranychus urticae) was 90%.

For CSc1ccccc1-c1cnc2cc(Cl)ccc2n1 [Example I-22], the “efficacy (aphids killed)” value (Myzus persicae; 500 g/ha) was 90% and the “logP [a] = log P (HCOOH)” value ([1]; pH 2.7) was 4.08.

With Cc1ccsc1-c1cnc2ccc(C(F)(F)F)cc2n1 [Example I-43] the “logP [a] = log P (HCOOH)” value ([1]; pH 2.7) was 4.65, the “logP [b] = log P (neutral)” value ([1]; pH 7.8) was 4.66 and the “efficacy (spider mites killed)” value (Tetranychus urticae) was 90%.

With FC(F)(F)c1ccc2nc(-c3cncnc3)cnc2c1 [Example I-12] the “logP [a] = log P (HCOOH)” value ([1]; pH 2.7) was 2.33 and the “efficacy (spider mites killed)” value (Tetranychus urticae) was 90%.

In the case of COc1cnccc1-c1cnc2ccc(C(F)(F)F)cc2n1 [Example I-62], the “efficacy (aphids killed)” value (Myzus persicae; 100 g/ha) was 90%, the “logP [a] = log P (HCOOH)” value ([1]; pH 2.7) was 2.60 and the “efficacy (kill of aphids)” value (Aphis gossypii) was 97%.

For Fc1cc2ncc(-c3ccncc3Cl)nc2cc1F [Example I-70], the “logP [a] = log P (HCOOH)” value ([1]; pH 2.7) was 2.72.

With N#Cc1ccc2nc(-c3ccncc3)cnc2c1 [Example I-61] the “logP [a] = log P (HCOOH)” value [1, 2] was 1.19.

In the case of Cc1cccnc1-c1cnc2cc(C(F)(F)F)ccc2n1 [Example I-52], the “logP [a] = log P (HCOOH)” value ([1]; pH 2.7) was 3.69.

Molecule CCSc1ccccc1-c1nc2ccc(C(F)(F)F)cc2nc1Cl [Example I-3, 3-Chloro-2-[2-(ethylsulfanyl)phenyl]-6-(trifluoromethyl)quinoxaline] has a chromatographic logP [1, 5] of 5.2.

For Cc1cscc1-c1cnc2ccc(C(F)(F)F)cc2n1 [Example I-44], the “logP [a] = log P (HCOOH)” value ([1]; pH 2.7) was 4.57.

With CC[S+]([O-])c1ccccc1-c1cnc2cc(Cl)ccc2n1 (stereo not drawn) [Example I-31] the “efficacy (aphids killed)” value (Myzus persicae; 500 g/ha) was 90%, the “logP [a] = log P (HCOOH)” value ([1]; pH 2.7) was 2.66 and the “logP [b] = log P (neutral)” value ([1]; pH 7.8) was 2.65.

For O=c1cnc2cc3c(cc2[nH]1)OC(F)(F)O3 [VIa-03, 2,2-difluoro[1,3]dioxolo[4,5-g]quinoxalin-6(5H)-one], the chromatographic logP [1, 5] was 1.49 and the chromatographic logP [1, 3] was 1.33.

For FC(F)(F)c1ccc2nc(-c3ccncc3)c(-c3ccncc3)nc2c1 [Example I-58], the “logP [a] = log P (HCOOH)” value [1, 2] was 2.06.

In the case of CCSc1ccccc1-c1cnc2cc(C#N)ccc2n1 [Example I-57], the “logP [a] = log P (HCOOH)” value ([1]; pH 2.7) was 3.60 and the “logP [b] = log P (neutral)” value ([1]; pH 7.8) was 3.55.

With CCOc1ncccc1-c1cnc2cc(C(F)(F)F)ccc2n1 [Example I-24] the “logP [a] = log P (HCOOH)” value ([1]; pH 2.7) was 4.59 and the “efficacy (spider mites killed)” value (Tetranychus urticae) was 100%.

With FC(F)(F)c1ccc2nc(-c3ccccn3)cnc2c1 [Example I-18] the “efficacy (aphids killed)” value (Myzus persicae; 500 g/ha) was 90%, the “logP [a] = log P (HCOOH)” value [1, 2] was 3.72 and the “logP [b] = log P (neutral)” value [1, 4] was 3.75. The “efficacy (spider mites killed)” value (Tetranychus urticae) was 90%.

For CCSc1ccccc1-c1cnc2ccc(S(C)(=O)=O)cc2n1 [Example I-35], the “logP [a] = log P (HCOOH)” value ([1]; pH 2.7) was 2.85 and the “logP [b] = log P (neutral)” value ([1]; pH 7.8) was 2.78.

For Cc1ccc(-c2cnc3ccc(C(F)(F)F)cc3n2)c(F)c1 [Example I-51], the “logP [a] = log P (HCOOH)” value ([1]; pH 2.7) was 4.97 and the “efficacy (spider mites killed)” value (Tetranychus urticae) was 100%.

With Cc1ccccc1-c1cnc2ccc(C(F)(F)F)cc2n1 [Example I-47] the “logP [a] = log P (HCOOH)” value [1, 2] was 4.47 and the “logP [b] = log P (neutral)” value [1, 4] was 4.41.

For Cn1nccc1-c1cnc2ccc(C(F)(F)F)cc2n1 [Example I-50], the “logP [a] = log P (HCOOH)” value [1, 2] was 3.02 and the “logP [b] = log P (neutral)” value [1, 4] was 3.00.

With Cc1cnccc1-c1cnc2ccc(S(C)(=O)=O)cc2n1 [Example I-13] the “logP [a] = log P (HCOOH)” value ([1]; pH 2.7) was 0.72 and the “logP [b] = log P (neutral)” value ([1]; pH 7.8) was 1.34.

In the case of CCSc1ccccc1-c1cnc2cc(Cl)ccc2n1 [Example I-23], the “logP [a] = log P (HCOOH)” value ([1]; pH 2.7) was 4.56.

With Cc1ccc(-c2c[n+]([O-])c3ccc(C(F)(F)F)cc3n2)c(F)c1 [Example I-54] the “logP [a] = log P (HCOOH)” value ([1]; pH 2.7) was 4.04 and the “logP [b] = log P (neutral)” value ([1]; pH 7.8) was 4.00.

In the case of Cc1ccccc1-c1cnc2cc(C(F)(F)F)ccc2n1 [Example I-46], the “logP [a] = log P (HCOOH)” value [1, 2] was 4.48 and the “efficacy (spider mites killed)” value (Tetranychus urticae) was 90%.
